Measurements as given in patent US9512083B2, “Histone deacetylase 6 selective inhibitors for the treatment of bone disease” (The General Hospital Corporation, priority 2012, dated 2016).
Entries after “also recorded” stand apart in the source; their conditions may differ.

Tests used:
[1] = test system: osteoclasts differentiated from MM patient bone marrow; experiment: PIT formation assay (bone resorption); assay type: cell-based, human; conditions: Compound A 1 μM and/or bortezomib 2.5 nM, 7 days
Method: OC activity was assayed by bone resorption enumerating resorption pits. Briefly, mononuclear cells (1.8×10^6 cell/well) from MM patient bone marrow were cultured in a 24-well plate coated with a synthetic carbonate apatite (CaP) (Cosmo Bio Co., Ltd, Tokio, Japan) and stimulated with RANKL (25 ng/ml) and M-CSF (25 ng/ml). […] On day 7 the conditioned medium was removed from each well and the wells were treated with 5% sodium hypochlorite for five minutes. After washing and drying, resorption pits were photographed by light microscopy and quantified by Image J software. Each pit area assay was performed at least 3 times with BM from different donors.

ac-α-tubulin [2] = experiment: Western blot of ac-α-tubulin in CD138+ MM patient cells; assay type: cell-based, human; conditions: 2 μM, 4 hours
[3] = test system: osteoblasts (OBLs) differentiated from BMSCs derived from MM patients; experiment: Alkaline phosphatase (ALP) activity assay of osteoblasts; assay type: cell-based, human; conditions: Compound A 1 μM and/or bortezomib 2.5 nM, 10-14 and 21 days
Method: Following the AlamarBlue cell viability assay, the wells were then washed twice with PBS fixed for 5 minutes and washed again with distilled water and Alkaline Phosphatase Yellow (pNPP) Liquid Substrate System for ELISA (sigma-aldrich) was added to the wells. The plates were read at OD of 405 nm after 5 minutes of incubation.
(FIG. 1B ALP after 14 days of differentiation in BMSC derived from patient 1, FIG. 1D ALP after 21 days of differentiation in BMSC derived from the same patient, FIG. 2B ALP after 14 days of differentiation in BMSC derived from patient 2, FIG. 2D ALP after 21 days of differentiation in BMSC derived from patient 2, FIG. 3B ALP after 10 days of differentiation in BMSC derived from patient 3).

Sirtuin 1 = target: T1, Sirtuin 1 (Homo sapiens, UniProt Q96EB6); experiment: HDAC enzyme assay, Sirtuin 1; assay type: biochemical
T1 sequence (Q96EB6 1-747): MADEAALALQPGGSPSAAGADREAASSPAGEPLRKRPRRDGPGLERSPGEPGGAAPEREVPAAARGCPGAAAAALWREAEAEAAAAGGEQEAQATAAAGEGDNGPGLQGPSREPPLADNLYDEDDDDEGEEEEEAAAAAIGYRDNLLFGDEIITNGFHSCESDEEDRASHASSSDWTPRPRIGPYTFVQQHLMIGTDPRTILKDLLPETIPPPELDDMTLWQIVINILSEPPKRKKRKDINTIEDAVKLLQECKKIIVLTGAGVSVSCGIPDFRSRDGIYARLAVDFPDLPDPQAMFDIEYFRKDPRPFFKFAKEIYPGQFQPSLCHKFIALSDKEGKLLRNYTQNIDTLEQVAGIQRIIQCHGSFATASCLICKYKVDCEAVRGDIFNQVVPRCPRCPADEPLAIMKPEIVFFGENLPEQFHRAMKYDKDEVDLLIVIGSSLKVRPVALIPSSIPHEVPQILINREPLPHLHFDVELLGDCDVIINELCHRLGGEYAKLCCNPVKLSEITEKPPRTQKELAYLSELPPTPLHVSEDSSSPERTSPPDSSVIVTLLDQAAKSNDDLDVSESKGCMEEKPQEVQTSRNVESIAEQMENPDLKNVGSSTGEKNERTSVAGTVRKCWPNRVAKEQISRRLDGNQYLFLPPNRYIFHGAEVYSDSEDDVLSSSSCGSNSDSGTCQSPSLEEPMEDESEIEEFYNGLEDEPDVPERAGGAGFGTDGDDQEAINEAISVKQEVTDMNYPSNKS

[4] = test system: pERK, pAkt, c-fos in OCLs; experiment: Immunoblot of signaling pathway in OCLs; assay type: cell-based, human; conditions: OCLs differentiated 10 days, treated with Compound A and or bortezomib 24 hours
Excerpt: Samples were then subjected to sodium dodecyl sulfate-polyacrylamide gel electrophoresis, transferred to PVDF membrane, and immunoblotted with antibodies against pAkt, Akt, and c-fos (Cell Signaling Technology, Beverly, Mass.) or phosphorylated extracellular signal-regulated kinase (pERK). Antigen-antibody complexes were detected by enhanced chemiluminescence (Amersham, Arlington Heights, Ill.). The membrane was stripped and reprobed with antitubulin antibody to ensure equal protein loading. Films were scanned and densitometric analysis performed.

acetyl-Histone H3 = experiment: Immunohistochemistry of acetyl-Histone H3 in CD138+ MM patient cells; assay type: cell-based, human; conditions: treated vs control
[5] = test system: osteoblasts (OBLs) differentiated from BMSCs derived from MM patients; experiment: AlamarBlue viability assay of osteoblasts; assay type: cell-based, human; conditions: Compound A 1 μM and/or bortezomib 2.5 nM, 10-14 and 21 days
Method: Alamarblue was added to the wells to a final concentration of 10% alamar blue and the plates were incubated at […] and 5% CO2 for 1 to 4 hours. The plates were read at absorbance (OD) of 530 nm and 600 nm. The delta OD was recorded and the date were plotted as percentage of control.
The control (ctr) represents the OBL without any treatment. Cell viability was assessed by Alamarblue assay (a redox indicator that yields a colorimetric change and a fluorescent signal in a response to a metabolic activity) (Invitrogen, Carlsbad, Calif.). […] (FIG. 1A alarm blue after 14 days of differentiation in BMSC derived from patient 1, FIG. 1C alarm blue after 21 days of differentiation in BMSC derived from the same patient, FIG. 2A alarm blue after 14 days of differentiation in BMSC derived from patient 2, FIG. 2C alarm blue after 21 days of differentiation in BMSC derived from patient 2, FIG. 3A alarm blue after 10 days of differentiation in BMSC derived from patient 3).

[6] = test system: acetylation of lysine on Histone H3 and Histone H4; experiment: Acetylation of Histone H3 and H4 in MM.1S cells; assay type: cell-based; conditions: compared to SAHA
[7] = test system: osteoblasts (OBLs) differentiated from BMSCs derived from MM patients; experiment: Alizarin red staining of calcium deposits in osteoblasts; assay type: cell-based, human; conditions: OBLs differentiated in presence of Compound A and/or bortezomib, 23 days
Excerpt: To evaluate calcium deposition, osteoblasts were washed with PBS and fixed after 23 days of treatment and assayed by alizarin red staining (Alizarin red solution, Millipore) that specifically stains mineralization area. The mineralization areas were visualized using Nikon Labophot-2 microscope with 10×/0.25 lens equipped with SPOT-insight QE camera.
The results shown in FIG. 4A “CTR alpha-mem” represent the BMSCs that have not been differentiated in OBL. The results shown in FIG. 4B “CRT OBL medium” represent the OBL without any treatment.

[8] = test system: osteoclasts (OCLs) differentiated from PBMCs from MM patients; experiment: Osteoclastogenesis, TRAP staining; assay type: cell-based, human
acetylated α-tubulin = experiment: Acetylation of α-tubulin in MM.1S cells; assay type: cell-based; conditions: increasing doses, 18 hours
Sirtuin 2 = target: T2, Sirtuin 2 (Homo sapiens, UniProt Q8IXJ6); experiment: HDAC enzyme assay, Sirtuin 2; assay type: biochemical
T2 sequence (Q8IXJ6 1-389): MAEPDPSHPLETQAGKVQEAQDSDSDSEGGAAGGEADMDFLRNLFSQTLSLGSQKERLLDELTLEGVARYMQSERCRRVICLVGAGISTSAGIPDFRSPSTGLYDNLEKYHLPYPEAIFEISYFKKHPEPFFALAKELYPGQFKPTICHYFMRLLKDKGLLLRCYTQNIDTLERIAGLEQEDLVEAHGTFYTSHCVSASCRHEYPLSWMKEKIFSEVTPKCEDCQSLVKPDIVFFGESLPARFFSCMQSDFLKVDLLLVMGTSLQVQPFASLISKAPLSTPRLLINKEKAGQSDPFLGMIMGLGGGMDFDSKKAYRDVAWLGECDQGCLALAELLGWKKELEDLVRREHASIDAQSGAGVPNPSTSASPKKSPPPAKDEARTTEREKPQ

ac-α-tubulin [9] = experiment: Immunohistochemistry of ac-α-tubulin in CD138+ MM patient cells; assay type: cell-based, human; conditions: treated vs control

Compound: O=C(CCCCCCNC(=O)c1cnc(N(c2ccccc2)c2ccccc2)nc1)NO [Compound A, 2-(diphenylamino)-N-(7-(hydroxyamino)-7-oxoheptyl)pyrimidine-5-carboxamide]
- PIT formation (resorption pits) [1]: significantly arrested PIT formation
- ac-α-tubulin, Western blot (ac-α-tubulin [2]): significant increase of ac-α-tubulin in treated compared to control cells
- OBLs function (alkaline phosphatase (ALP) activity) [3]: increases OBLs function; also recorded: increases the alkaline phosphate activity
- IC50 (Sirtuin 1; Sirtuin 1): > 10 µM
- IC50 (Sirtuin 1; sirtuin 1, text (minimal activity)): > 1 µM
- pERK, pAkt and c-fos expression (immunoblot) [4]: downregulation of pERK, pEKT and cFOS expression
- acetyl-Histone H3, immunohistochemistry (IHC) (acetyl-Histone H3): without any significant increase in acetyl-Histone H3
- viability of OBLs (AlamarBlue) [5]: does not induce cytotoxicity on OBL cells; also recorded: does not affect the viability of osteoblasts (OBLs)
- acetylation of lysine on Histone H3 and Histone H4 [6]: less potent acetylation of lysine on Histone H3 and Histone H4 compared to SAHA
- calcium deposits (Alizarin red staining) [7]: increases calcium deposits in OBL cells
- number of OCLs (multinucleated TRAP-positive cells) per well ([8]; compared with bortezomib or untreated control wells, 7 and 14 days): significantly decreases the number of OCLs; also recorded: inhibits osteoclastogenesis
- number of OCLs (multinucleated TRAP-positive cells) per well, dose dependence ([8]; days 7 and 14 of osteoclast differentiation): decreases the number of OCLs (multinucleated TRAP-positive cells) per well in a dose dependent manner; also recorded: inhibits osteoclastogenesis in a dose-dependent manner
- acetylated α-tubulin (acetylated α-tubulin): dose dependent significant increase in the acetylated α-tubulin was observed even in the presence of low doses (0.04 μM)
- IC50 (Sirtuin 2; Sirtuin 2): > 10 µM
- IC50 (Sirtuin 2; sirtuin 2, text (minimal activity)): > 1 µM
- ac-α-tubulin, immunohistochemistry (IHC) (ac-α-tubulin [9]): significant increase of ac-α-tubulin was observed in treated compared to control cells
